# Test results published in patent US20110183842A1, “Triazole and Imidazole Compounds, Use Thereof and Agents Containing Them” (BASF SE, priority 2008, published 2011).
# Test system: Phakopsora pachyrhizi
# Test: Curative activity against soybean rust caused by Phakopsora pachyrhizi (greenhouse, soybean seedlings)
# Type: in vivo
# Details: 300 ppm active compound, sprayed to runoff two days after inoculation of soybean seedlings, rated after a further 10 days; untreated plants 90% infected
# Procedure: The active compounds were prepared separately or together as a stock solution with 25 mg of active compound, which was made up to 10 ml with a mixture of acetone and/or DMSO and the emulsifier Uniperol® EL (wetting agent with emulsifying and dispersant action based on ethoxylated alkylphenols) in the volume ratio solvent/emulsifier of from 99 to 1. Subsequently, it was made up to 100 ml with water. This stock solution was diluted with the described solvent/emulsifier/water mixture to the active compound concentration indicated below. Alternatively to this, the active compounds were used as a commercially available ready-to-use solution and diluted with water to the active compound concentration indicated.
# Leaves of soybean seedlings grown in pots were inoculated with a spore suspension of soybean rust (Phakpsora pachyrhizi). The pots were then placed in a chamber of high atmospheric humidity (90 to 95%) and 23 to 27° C. for 24 hours. During this time, the spores germinated and the germ tubes penetrated into the leaf tissue. The infected plants were then cultivated further in a greenhouse at temperatures between 23 and 27° C. and 60 to 80% relative atmospheric humidity. After two days, the plants were sprayed to runoff point with the active compound solution described above at the active compound concentration indicated below. After the spray coating had dried on, the test plants were cultivated in a greenhouse at temperatures between 23 and 27° C. and 60 to 80% relative atmospheric humidity for a further 10 days. The extent of the rust fungus development on the leaves was then determined visually in % infection.
row,SMILES,"extent of the rust fungus development on the leaves, determined visually in % infection [%]"
1,"CC(C)(C)C(O)C(CCCCOc1ccccc1F)n1ncnc1S (stereo not drawn) [I.A1, 8-(2-fluorophenoxy)-4-(5-mercapto-[1,2,4]triazol-1-yl)-2,2-dimethyloctan-3-ol]",15
2,"CC(C)(C)C(O)C(CCCCOc1cc(F)ccc1F)n1ncnc1S (stereo not drawn) [I.A4, 8-(2,5-difluorophenoxy)-4-(5-mercapto-[1,2,4]triazol-1-yl)-2,2-dimethyloctan-3-ol]",15
3,"CC(C)(C)C(O)C(CCCCOc1c(F)cccc1Cl)n1ncnc1S (stereo not drawn) [I.A5, 8-(2-Chloro-6-fluorophenoxy)-4-(5-mercapto-[1,2,4]triazol-1-yl)-2,2-dimethyloctan-3-ol]",15
